molecular target: T1, hP2X3 (human Purinergic P2X receptors subtype 3), clone B (Homo sapiens, UniProt P56373); assay: hP2X3 FLIPR calcium (Fluo-4) antagonist assay, clone B; conditions: Human P2X3 FLIPR Clone B IC50 (nM), RLE cells expressing hP2X3 clone B (NM_002559); agonist 500 nM α,β-methylene-ATP
T1 sequence (P56373 1-397): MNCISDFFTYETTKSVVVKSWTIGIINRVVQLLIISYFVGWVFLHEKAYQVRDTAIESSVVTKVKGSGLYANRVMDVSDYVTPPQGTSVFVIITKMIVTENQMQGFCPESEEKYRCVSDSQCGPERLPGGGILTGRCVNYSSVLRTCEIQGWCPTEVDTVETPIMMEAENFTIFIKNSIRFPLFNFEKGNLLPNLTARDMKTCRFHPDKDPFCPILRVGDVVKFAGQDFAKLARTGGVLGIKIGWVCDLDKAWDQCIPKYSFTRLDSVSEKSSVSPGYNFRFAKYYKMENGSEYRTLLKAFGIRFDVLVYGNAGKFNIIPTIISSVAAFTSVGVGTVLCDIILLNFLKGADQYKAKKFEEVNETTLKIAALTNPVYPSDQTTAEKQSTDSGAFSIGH

SMILES	IC50 [nM]
CC(=O)N1CCN(c2nc(NCCc3ccc(C)cc3C)c3c(n2)C(=O)N(C(C)C)C3)CC1 [Example 56, 2-(4-acetylpiperazin-1-yl)-4-{[2-(2,4-dimethylphenyl)ethyl]amino}-6-isopropyl-5,6-dihydro-7H-pyrrolo[3,4-d]pyrimidin-7-one]	2700
CC(=O)N1CCN(c2nc3c(c(N(Cc4ccccc4)Cc4ccc(Cl)cc4)n2)CN(C(C)C)C3=O)CC1 [Example 58, 2-(4-acetylpiperazin-1-yl)-4-[benzyl(4-chlorobenzyl)amino]-6-isopropyl-5,6-dihydro-7H-pyrrolo[3,4-d]pyrimidin-7-one]	270
CC(C)N1Cc2c(NC(C)(C)Cc3ccc(Cl)cc3)nc(N3C[C@@H](C)O[C@@H](C)C3)nc2C1=O [Example 61, 4-{[2-(4-chlorophenyl)-1,1-dimethylethyl]amino}-2-[(2R,6S)-2,6-dimethylmorpholin-4-yl]-6-isopropyl-5,6-dihydro-7H-pyrrolo[3,4-d]pyrimidin-7-one]	1400
CC(=O)NC1CCN(c2nc(NC(C)(C)Cc3ccc(Cl)cc3)c3c(n2)C(=O)N(C(C)C)C3)C1 (stereo not drawn) [Example 62, N-[1-(4-{[2-(4-chlorophenyl)-1,1-dimethylethyl]amino}-6-isopropyl-7-oxo-6,7-dihydro-5H-pyrrolo[3,4-d]pyrimidin-2-yl)pyrrolidin-3-yl]acetamide]	340
CC(C)N1Cc2c(NC(C)(C)Cc3ccc(Cl)cc3)nc(N3CCN(CC(=O)N(C)C)CC3)nc2C1=O [Example 63, 2-[4-(4-{[2-(4-chlorophenyl)-1,1-dimethylethyl]amino}-6-isopropyl-7-oxo-6,7-dihydro-5H-pyrrolo[3,4-d]pyrimidin-2-yl)piperazin-1-yl]-N,N-dimethylacetamide]	9200
CCN1CCN(c2nc(NC(C)(C)Cc3ccc(Cl)cc3)c3c(n2)C(=O)N(C(C)C)C3)CC1 [Example 64, 4-{[2-(4-chlorophenyl)-1,1-dimethylethyl]amino}-2-(4-ethylpiperazin-1-yl)-6-isopropyl-5,6-dihydro-7H-pyrrolo[3,4-d]pyrimidin-7-one]	3500
CC(=O)N1CCCN(c2nc(NC(C)(C)Cc3ccc(Cl)cc3)c3c(n2)C(=O)N(C(C)C)C3)CC1 [Example 65, 2-(4-acetyl-1,4-diazepan-1-yl)-4-{[2-(4-chlorophenyl)-1,1-dimethylethyl]amino}-6-isopropyl-5,6-dihydro-7H-pyrrolo[3,4-d]pyrimidin-7-one]	420
CC(=O)N(C)C1CCN(c2nc(NC(C)(C)Cc3ccc(Cl)cc3)c3c(n2)C(=O)N(C(C)C)C3)C1 (stereo not drawn) [Example 67, N-[1-(4-{[2-(4-chlorophenyl)-1,1-dimethylethyl]amino}-6-isopropyl-7-oxo-6,7-dihydro-5H-pyrrolo[3,4-d]pyrimidin-2-yl)pyrrolidin-3-yl]-N-methylacetamide]	450
CC(C)N1Cc2c(NC(C)(C)Cc3ccc(Cl)cc3)nc(N3CCNC(=O)CC3)nc2C1=O [Example 68, 4-{[2-(4-chlorophenyl)-1,1-dimethylethyl]amino}-6-isopropyl-2-(5-oxo-1,4-diazepan-1-yl)-5,6-dihydro-7H-pyrrolo[3,4-d]pyrimidin-7-one]	350
CC(C)N1Cc2c(NC(C)(C)Cc3ccc(Cl)cc3)nc(NCCN3CCCC3=O)nc2C1=O [Example 70, 4-{[2-(4-chlorophenyl)-1,1-dimethylethyl]amino}-6-isopropyl-2-{[2-(2-oxopyrrolidin-1-yl)ethyl]amino}-5,6-dihydro-7H-pyrrolo[3,4-d]pyrimidin-7-one]	780
CCC(=O)N1CCN(c2nc(NC(C)(C)Cc3ccc(Cl)cc3)c3c(n2)C(=O)N(C(C)C)C3)CC1 [Example 71, 4-{[2-(4-chlorophenyl)-1,1-dimethylethyl]amino}-6-isopropyl-2-(4-propionylpiperazin-1-yl)-5,6-dihydro-7H-pyrrolo[3,4-d]pyrimidin-7-one]	130
CC(C)CN1Cc2c(NC(c3ccccc3)c3ccccc3)nc(N3CCOCC3)nc2C1=O [Example 73, 4-(Benzhydryl-amino)-6-isobutyl-2-morpholin-4-yl-5,6-dihydro-pyrrolo[3,4-d]pyrimidin-7-one]	3800
CC(C)N1Cc2c(NC(c3ccccc3)c3ccc(Cl)cc3)nc(N3CCOCC3)nc2C1=O (stereo not drawn) [Example 77, 4-{[(4-Chloro-phenyl)-phenyl-methyl]-amino}-6-isopropyl-2-morpholin-4-yl-5,6-dihydro-pyrrolo[3,4-d]pyrimidin-7-one]	260
CC(C)N1Cc2c(NC(c3ccccc3)c3ccccc3)nc(NCc3ccccc3)nc2C1=O [Example 84, 4-(Benzhydryl-amino)-2-benzylamino-6-isopropyl-5,6-dihydro-pyrrolo[3,4-d]pyrimidin-7-one]	830
CCC(=O)N1CCN(c2nc(NC(c3ccccc3)c3ccccc3)c3c(n2)C(=O)N(C(C)C)C3)CC1 [Example 87, 4-(Benzhydryl-amino)-6-isopropyl-2-(4-propionyl-piperazin-1-yl)-5,6-dihydro-pyrrolo[3,4-d]pyrimidin-7-one]	240
CC(=O)N1CCN(c2nc(NC(Cc3ccccc3)c3ccccc3)c3c(n2)C(=O)N(C(C)C)C3)CC1 (stereo not drawn) [Example 88, 2-(4-Acetyl-piperazin-1-yl)-4-(1,2-diphenyl-ethylamino)-6-isopropyl-5,6-dihydro-pyrrolo[3,4-d]pyrimidin-7-one]	1800

The next lines start with the values.

IC50 [nM]	SMILES
240	CC(=O)N1CCN(c2nc3c(c(N4CCCC4Cc4ccccc4)n2)CN(C(C)C)C3=O)CC1 (stereo not drawn) [Example 54, 2-(4-acetylpiperazin-1-yl)-4-(2-benzylpyrrolidin-1-yl)-6-isopropyl-5,6-dihydro-7H-pyrrolo[3,4-d]pyrimidin-7-one]
9700	CC(=O)N1CCN(c2nc(NCCc3ccc(C)c(C)c3)c3c(n2)C(=O)N(C(C)C)C3)CC1 [Example 55, 2-(4-acetylpiperazin-1-yl)-4-{[2-(3,4-dimethylphenyl)ethyl]amino}-6-isopropyl-5,6-dihydro-7H-pyrrolo[3,4-d]pyrimidin-7-one]
8500	CC(C)N1Cc2c(nc(NCCN(C)C)nc2N2CCCC2Cc2ccc(Cl)cc2)C1=O (stereo not drawn) [Example 57, 4-[2-(4-chlorobenzyl)pyrrolidin-1-yl]-2-{[2-(dimethylamino)ethyl]amino}-6-isopropyl-5,6-dihydro-7H-pyrrolo[3,4-d]pyrimidin-7-one]
220	CC(=O)N1CCN(c2nc3c(c(N(Cc4ccc(Cl)cc4)CC4CC4)n2)CN(C(C)C)C3=O)CC1 [Example 59, 2-(4-acetylpiperazin-1-yl)-4-[(4-chlorobenzyl)(cyclopropylmethyl)amino]-6-isopropyl-5,6-dihydro-7H-pyrrolo[3,4-d]pyrimidin-7-one]
1400	CC(C)N1Cc2c(NC(C)(C)Cc3ccc(Cl)cc3)nc(NCCCN3CCCC3=O)nc2C1=O [Example 66, 4-{[2-(4-chlorophenyl)-1,1-dimethylethyl]amino}-6-isopropyl-2-{[3-(2-oxopyrrolidin-1-yl)propyl]amino}-5,6-dihydro-7H-pyrrolo[3,4-d]pyrimidin-7-one]
4300	O=C1c2nc(N3CCOCC3)nc(NC(c3ccccc3)c3ccccc3)c2CN1C1CC1 [Example 74, 4-(Benzhydryl-amino)-6-cyclopropyl-2-morpholin-4-yl-5,6-dihydro-pyrrolo[3,4-d]pyrimidin-7-one]
> 30000	O=C1c2nc(N3CCOCC3)nc(NC(c3ccccc3)c3ccccc3)c2CN1C1CCCC1 [Example 75, 4-(Benzhydryl-amino)-6-cyclopentyl-2-morpholin-4-yl-5,6-dihydro-pyrrolo[3,4-d]pyrimidin-7-one]
230	Cc1ccc(C(Nc2nc(N3CCOCC3)nc3c2CN(C(C)C)C3=O)c2ccccc2)cc1 (stereo not drawn) [Example 76, 6-isopropyl-2-morpholin-4-yl-[(phenyl-p-tolyl-methyl)-amino]-5,6-dihydro-pyrrolo[3,4-d]pyrimidin-7-one]
400	CCN1CCN(c2nc(NC(c3ccccc3)c3ccccc3)c3c(n2)C(=O)N(C(C)C)C3)CC1 [Example 78, 4-(Benzhydryl-amino)-2-(4-ethyl-piperazin-1-yl)-6-isopropyl-5,6-dihydro-pyrrolo[3,4-d]pyrimidin-7-one]
130	CC(C)N1Cc2c(NC(c3ccccc3)c3ccccc3)nc(N3CCN(C(=O)C4CC4)CC3)nc2C1=O [Example 79, 4-(Benzhydryl-amino)-2-(4-cyclopropanecarbonyl-piperazin-1-yl)-6-isopropyl-5,6-dihydro-pyrrolo[3,4-d]pyrimidin-7-one]
190	CC(C)C(=O)N1CCN(c2nc(NC(c3ccccc3)c3ccccc3)c3c(n2)C(=O)N(C(C)C)C3)CC1 [Example 80, 4-(Benzhydryl-amino)-2-(4-isobutyryl-piperazin-1-yl)-6-isopropyl-5,6-dihydro-pyrrolo[3,4-d]pyrimidin-7-one]
280	CC1CN(c2nc(NC(c3ccccc3)c3ccccc3)c3c(n2)C(=O)N(C(C)C)C3)CC(C)O1 (stereo not drawn) [Example 86, 4-(Benzhydryl-amino)-2-(2,6-dimethyl-morpholin-4-yl)-6-isopropyl-5,6-dihydro-pyrrolo[3,4-d]pyrimidin-7-one]
6200	CCN(CC)c1nc(NC(c2ccccc2)c2ccccc2)c2c(n1)C(=O)N(C(C)C)C2 [Example 89, 4-(Benzhydryl-amino)-2-diethylamino-6-isopropyl-5,6-dihydro-pyrrolo[3,4-d]pyrimidin-7-one]
100	CC(=O)N1CCN(c2nc(NCC(c3ccccc3)c3ccccc3)c3c(n2)C(=O)N(C(C)C)C3)CC1 [Example 91, 2-(4-acetylpiperazin-1-yl)-4-[(2,2-diphenylethyl)amino]-6-isopropyl-5,6-dihydro-7H-pyrrolo[3,4-d]pyrimidin-7-one]

— patent publication US20090099195A1 (ASTRAZENECA AB, priority 2007, published 2009)
